Where a name gives a salt, the structure may show the parent alone. Read-outs that look alike come from different tables or passages of the source.

In this assay the test system is hair cells. Description: Hair cell toxicity assay in zebrafish (neomycin-induced hair cell death, DASPEI staining of neuromasts). Type of assay: in vivo. Particulars: for Emax at 25 µM: maximum observed @ 25 μM test compound; for EC50: zebrafish larvae 5-7 dpf, 1 h pre-treatment, then 200 micromolar neomycin + test compound 30 min, read-out: HC50 (concentration that would produce 50% hair cell survival); for Emax at 2.8 µM: maximum observed @ 2.8 μM test compound; for Emax at 8.3 µM: maximum observed @ 8.3 μM test compound. The method, then: Zebrafish are bred and newly fertilized embryos are collected the week prior and raised at 28.5° C. in petri dishes containing embryo medium. Newly hatched free-swimming larvae are fed paramecium and dry fish food at 4 days post fertilization (dpf) with lights on. For treatment, fish 5-7 dpf are transferred to cell culture baskets and place within a well of a 6-well plate containing 7 milliliters of 1× embryo medium. Typically, tests are done with ten fish per basket but work well with up to 50 fish. All treatment and wash volumes are 7 milliliters. • 1. Fish are pre-treated with test compound for 1 hour. […] Treat with 200 micromolar neomycin (neomycin sulfate, Sigma, St. Louis, Mo., catalog #N1142)+test compound for 30 minutes. • 3. Rinse fish briefly 4 times in embryo medium and add 700 μl of 0.05% DASPEI (2-{4-(dimethylamino)styryl}-N-ethylpyridinium iodide, Molecular Probes, Eugene, Oreg.) and allowed to stain for 15 minutes. • 4. Rinse twice in embryo medium and add 350 μl MS222 (0.55 ug/ml final concentration, 3-aminobenzoic acid ethyl ester, methansulfoneate salt, Sigma, St. Louis, Mo.) to anesthetize. • 5. View with epifluorescence dissecting microscope equipped with a DAPSEI filter set (excitation […], Chroma Technologies, Brattleboro, Vt.). For assessment of initial dose response curves, fish are transferred to wide depression slide with wide-bore pipette. The DASPEI staining of ten neuromasts (SO1, SO2, IO1, IO2, IO3, IO4, M2, MI1, MI2 and O2) on one side of an animal are evaluated. Each neuromast is scored for presence of DASPEI staining (score=2), reduced DASPEI staining (score=1) or absence of DASPEI staining (score=0). Total scores for an animal are tabulated, to give a composite score that can range from 0 to 20. Average scores and standard deviations are calculated for animals in each treatment group. Scores are normalized to control group (vehicle only, no drug, no neomycin) and expressed as % hair cell survival. HCmax is the maximum protection (hair cell survival) observed. • 6. If at least 50% hair cells survive, the HC50 (concentration that would produce 50% hair cell survival) is calculated as a linear extrapolation from the nearest concentrations of protective drug that produce hair cell survival below and above 50%. If less than 50% hair cells survive, the HC50 is not determined. 1× embryo media (standard lab EM): • 1 mM MgSO4, • 0.15 mM KH2PO4, • 0.05 mM Na2HPO4, • 1 mM CaCl2, • 0.5 mM KCl • 15 mM NaCl • 0.7 mM NaHCO3

[1] abbreviates: Danio rerio, 200 micromolar neomycin, read-out: Max HC Protection (HCmax, % hair cell survival).

On to `NC(=O)c1c(NC(=O)Nc2ccc(Cl)cc2)sc2c1CCN(C1CCNC1)C2` (racemic) [Example 7, (+/−)-2-[3-(4-Chlorophenyl)ureido]-6-(pyrrolidin-3-yl)-4,5,6,7-tetrahydrothieno[2,3-c]pyridine-3-carboxamide dihydrochloride], for which, under setting [1], the Emax at 25 µM is 78%. For the setting “Danio rerio”, the EC50 was 1000 to 10000 nM. The corresponding values for `CN1CCC(N2CCc3c(sc(NC(=O)Nc4ccc(Cl)cc4)c3C(N)=O)C2)C1` (racemic) [Example 9, (+/−)-2-[3-(4-Chlorophenyl)ureido]-6-(1-methylpyrrolidin-3-yl)-4,5,6,7-tetrahydrothieno[2,3-c]pyridine-3-carboxamide dihydrochloride] are 82% and 1000 to 10000 nM. Turning to `CC(C1CCC1)N1CCc2c(sc(NC(=O)Nc3ccc(Cl)cc3)c2C(N)=O)C1` (racemic) [Example 47, (+/−)-2-[3-(4-chlorophenyl)ureido]-6-(1-cyclobutylethyl)-4,5,6,7-tetrahydrothieno[2,3-c]pyridine-3-carboxamide hydrochloride], under setting [1], the Emax at 2.8 µM is 73%. Moreover, the EC50 (Danio rerio) is < 1000 nM. Regarding `CC(C)C(C)N1CCc2c(sc(NC(=O)Nc3ccc(Cl)cc3)c2C(N)=O)C1` (racemic) [Example 48, (+/−)-2-[3-(4-Chlorophenyl)ureido]-6-(3-methylbutan-2-yl)-4,5,6,7-tetrahydrothieno[2,3-c]pyridine-3-carboxamide hydrochloride], the Emax at 25 µM under setting [1] was 72%. Also, the EC50 (Danio rerio) was in the range of 1000 to 10000 nM. In the case of `CC(C(=O)OC(C)(C)C)N1CCc2c(sc(NC(=O)Nc3ccc(Cl)cc3)c2C(N)=O)C1` (racemic) [Example 59, (+/−)-tert-Butyl 2-{3-carbamoyl-2-[3-(4-chlorophenyl)ureido]-4,5-dihydrothieno[2,3-c]pyridin-6(7H)-yl}propanoate], under setting [1], the Emax at 8.3 µM was 40%.

In the case of `CC(C(=O)O)N1CCc2c(sc(NC(=O)Nc3ccc(Cl)cc3)c2C(N)=O)C1` (racemic) [Example 62, (+/−)-2-{3-Carbamoyl-2-[3-(4-chlorophenyl)ureido]-4,5-dihydrothieno[2,3-c]pyridin-6(7H)-yl}propanoic acid hydrochloride], the Emax at 25 µM under setting [1] stood at 29%.

On to `CN1CCCC12CCc1c(sc(NC(=O)Nc3ccc(Cl)cc3)c1C(N)=O)C2` (racemic) [Example 111, (+/−)-2-[3-(4-chlorophenyl)ureido]-1′-methyl-5,7-dihydro-4H-spiro(benzo[b]thiophene-6,2′-pyrrolidine)-3-carboxamide hydrochloride], for which, under setting [1], the Emax at 2.8 µM was found to be 55%. The EC50 (Danio rerio) lay in the range of 1000 to 10000 nM.

On to `NC(=O)c1c(NC(=O)Nc2ccc(Cl)cc2)sc2c1CC1CCCCN1C2` (racemic) [Example 117, (+/−)-2-[3-(4-chlorophenyl)ureido]-4a,5,6,7,8,10-hexahydro-4H-thieno[3,2-b]quinolizine-3-carboxamide hydrochloride], for which the Emax at 25 µM under setting [1] was 78%. The EC50 (Danio rerio) lay in the range of 1000 to 10000 nM.

For `NC(=O)c1c(NC(=O)Nc2ccc(Cl)cc2)sc2c1CCN1CCCCC21` (racemic) [Example 118, (+/−)-2-[3-(4-Chlorophenyl)ureido]-5,7,8,9,10,10a-hexahydro-4H-thieno[2,3-a]quinolizine-3-carboxamide hydrochloride], the Emax at 25 µM under setting [1] stood at 99%. The EC50 (Danio rerio) was 1000 to 10000 nM. Turning to `NC(=O)c1c(NC(=O)Nc2ccc(Cl)cc2)sc2c1CC1CCC2N1` (racemic) [Example 122, (+/−)-2-[3-(4-chlorophenyl)ureido]-5,6,7,8-tetrahydro-4H-5,8-epiminocyclohepta[b]thiophene-3-carboxamide hydrochloride], under setting [1], the Emax at 25 µM is 91%. The EC50 (Danio rerio) was < 1000 nM.

With `CC12CCC(C)(N1)c1sc(NC(=O)Nc3ccc(Cl)cc3)c(C(N)=O)c1C2` (racemic) [Example 123, (+/−)-2-[3-(4-Chlorophenyl)ureido]-5,8-dimethyl-5,6,7,8-tetrahydro-4H-5,8-epiminocyclohepta[b]thiophene-3-carboxamide trifluoroacetate], the Emax at 2.8 µM under setting [1] was 60%. The EC50 (Danio rerio) was < 1000 nM.

Consider `NC(=O)c1c(NC(=O)Nc2ccc(Cl)cc2)sc2c1CC1CCC2N1` (racemic) [Example 124, (+/−)-2-[3-(4-chlorophenyl)ureido]-5,6,7,8-tetrahydro-4H-5,8-epiminocyclohepta[b]thiophene-3-carboxamide hydrochloride], for which the EC50 is < 1000 nM. On to `CN1C2CCC1c1sc(NC(=O)Nc3ccc(Cl)cc3)c(C(N)=O)c1C2` (racemic) [Example 125, (+/−)-2-[3-(4-chlorophenyl)ureido)-9-methyl-5,6,7,8-tetrahydro-4H-5,8-epiminocyclohepta[b]thiophene-3-carboxamide hydrochloride], for which the Emax at 8.3 µM under setting [1] came out at 99%. For the setting “Danio rerio”, the EC50 is < 1000 nM. As for `CN1C2CCC1c1sc(NC(=O)Nc3ccc(C(=O)c4ccccc4)cc3)c(C(N)=O)c1C2` (racemic) [Example 126, (+/−)-2-[3-(4-Benzoylphenyl)ureido]-9-methyl-5,6,7,8-tetrahydro-4H-5,8-epiminocyclohepta[b]thiophene-3-carboxamide hydrochloride], the Emax at 2.8 µM under setting [1] was 41%. Take `NC(=O)c1c(NC(=O)Nc2ccc(Cl)cc2)sc2c1CC1CCC2N1CC1CCCCC1` (racemic) [Example 131, (+/−)-2-[3-(4-chlorophenyl)ureido]-9-(cyclohexylmethyl)-5,6,7,8-tetrahydro-4H-5,8-epiminocyclohepta[b]thiophene-3-carboxamide hydrochloride]: under setting [1], the Emax at 2.8 µM turned out to be 88%. For the same compound, the EC50 (Danio rerio) was < 1000 nM. For `NC(=O)c1c(NC(=O)Nc2ccc(Cl)cc2)sc2c1CC1CCC2N1CC1CCC1` (racemic) [Example 132, (+/−)-2-[3-(4-Chlorophenyl)ureido]-9-(cyclobutylmethyl)-5,6,7,8-tetrahydro-4H-5,8-epiminocyclohepta[b]thiophene-3-carboxamide hydrochloride], in that order: 97% and < 1000 nM.

In the case of `CCN1C2CCC1c1sc(NC(=O)Nc3ccc(Cl)cc3)c(C(N)=O)c1C2` (racemic) [Example 133, (+/−)-2-[3-(4-Chlorophenyl)ureido]-9-ethyl-5,6,7,8-tetrahydro-4H-5,8-epiminocyclohepta[b]thiophene-3-carboxamide hydrochloride], the Emax at 25 µM under setting [1] came to 76%. Besides, the EC50 (Danio rerio) was < 1000 nM. For the compound `COC(=O)C(C)(C)CN1C2CCC1c1sc(NC(=O)Nc3ccc(Cl)cc3)c(C(N)=O)c1C2` (racemic) [Example 134, (+/−)-Methyl 3-{3-carbamoyl-2-[3-(4-chlorophenyl)ureido]-5,6,7,8-tetrahydro-4H-5,8-epiminocyclohepta[b]thiophen-9-yl}-2,2-dimethylpropanoate hydrochloride], the Emax at 0.9 µM (Danio rerio, maximum observed @ 0.9 μM test compound, 200 micromolar neomycin, read-out: Max HC Protection (HCmax, % hair cell survival)) turned out to be 11%. For the compound `C[N+]12CCCCC1Cc1c(sc(NC(=O)Nc3ccc(Cl)cc3)c1C(N)=O)C2` (racemic) [Example 177, (+/−)-3-Carbamoyl-2-[3-(4-chlorophenyl)ureido]-9-methyl-4,4a,5,6,7,8,9,10-octahydrothieno[3,2-b]quinolizin-9-ium iodide], the Emax at 25 µM under setting [1] came out at 97%. Also, the EC50 (Danio rerio) fell in the range of 1000 to 10000 nM. With `C[N+]12CCCCC1c1sc(NC(=O)Nc3ccc(Cl)cc3)c(C(N)=O)c1CC2` (racemic) [Example 178, (+/−)-3-Carbamoyl-2-[3-(4-chlorophenyl)ureido]-6-methyl-4,5,6,7,8,9,10,10a-octahydrothieno[2,3-a]quinolizin-6-ium chloride], the Emax at 25 µM under setting [1] is 102%. The EC50 (Danio rerio) is 1000 to 10000 nM. Turning to `C[N+]1(C)CCCC12CCc1c(sc(NC(=O)Nc3ccc(Cl)cc3)c1C(N)=O)C2` (racemic) [Example 186, (+/−)-3-Carbamoyl-2-[3-(4-chlorophenyl)ureido]-1′,1′-dimethyl-5,7-dihydro-4H-spiro(benzo[b]thiophene-6,2′-pyrrolidin)-1′-ium trifluoroacetate], under setting [1], the Emax at 2.8 µM was determined as 65%. The EC50 (Danio rerio) was < 1000 nM.

(Values after patent US9416141B2 (University of Washington through its Center for …, priority 2012, dated 2016).)
